These are literature values, as cited in the PKSmart pharmacokinetics tables (Seal et al. 2025).

As a reminder, the MRT is the average time that molecules of a dose stay in the body. As usually defined, the Vd is the apparent volume that relates the amount in the body to the concentration in plasma or blood. The term clearance denotes the rate of elimination divided by the concentration. In general, half-life refers to the time in which the quantity being followed falls by half. For orientation: fraction unbound means the share of the substance not bound to proteins or other matrix.

The nature of the series: Lombardo, Berellini, Obach 2018, Drug Metab Dispos 46:1466, doi 10.1124/dmd.118.082966. The note with it: human; for MRT / Vd / clearance / half-life: in vivo, iv; for fraction unbound: plasma.

For the compound `COc1cc(F)ccc1Cn1ccc2c3c(ncc21)C(=O)N(O)CC3`, the MRT was 3.95 h, the Vd was 5.7 L/kg, the clearance was 24 mL/min/kg and the half-life is 3.8 h. In addition, the fraction unbound was 0.08.

Take `CN(C)c1cc(NC(=O)CNC(C)(C)C)c(O)c2c1C[C@H]1C[C@H]3[C@H](N(C)C)C(O)=C(C(N)=O)C(=O)[C@@]3(O)C(O)=C1C2=O`: the MRT is 53 h, the Vd was 12 L/kg, the clearance was 3.8 mL/min/kg and the half-life is 48 h. The fraction unbound was 0.2.

For `CC[C@@H]([C@H](C)O)n1ncn(-c2ccc(N3CCN(c4ccc(OC[C@H]5CO[C@@](Cn6cncn6)(c6ccc(F)cc6F)C5)cc4)CC3)cc2)c1=O`, the MRT was 14.5 h, the Vd is 3.8 L/kg, the clearance is 4.3 mL/min/kg and the half-life was 10.6 h. Besides, the free fraction (fraction unbound) was 0.013.

Take `C[C@H](CN1CCOCC1)C(C(=O)N1CCCC1)(c1ccccc1)c1ccccc1`: the mean residence time (MRT) is 3.88 h, the Vd is 0.47 L/kg, the clearance was 2.19 mL/min/kg and the half-life is 3.18 h.

As for `CCOC(=O)C(CCc1ccccc1)NC(C)C(=O)N1C(C(=O)O)C[C@H]2CCCC[C@H]21` (some centres not stated), the fraction unbound was 0.17.

As for `C=CC[N+]1([C@H]2C[C@H]3[C@@H]4CC[C@H]5C[C@H](O)[C@@H](N6CCOCC6)C[C@]5(C)[C@H]4CC[C@]3(C)[C@H]2OC(C)=O)CCCC1`, the MRT is 0.95 h, the Vd was 0.21 L/kg, the clearance was 3.7 mL/min/kg and the half-life was 1.6 h. Besides, the fraction unbound was 0.54.

As for `COc1cc2nc(N(C)CCCNC(=O)C3CCCO3)nc(N)c2cc1OC` (configuration not stated), the MRT is 4.2 h, the Vd was 1.5 L/kg, the clearance was 5.9 mL/min/kg and the half-life is 4.8 h. For the same compound, the fraction unbound is 0.14.

Consider `COc1ccccc1N1CCN(C[C@@H](O)COc2cccc3ccccc23)CC1`, for which the clearance was 11 mL/min/kg, the half-life is 3.3 h and the fraction unbound was 0.008.

`Fc1ccc([C@@H]2CCNC[C@H]2COc2ccc3c(c2)OCO3)cc1`: the MRT is 17 h, the Vd is 18 L/kg, the clearance was 18 mL/min/kg and the half-life was 13 h. Further, the fraction unbound was 0.06.

`Nc1nc(=O)n([C@H]2C[C@H](O)[C@@H](CO)O2)cc1F`: the MRT is 2.98 h, the distribution volume (Vd) was 0.91 L/kg, the clearance was 5.09 mL/min/kg and the half-life is 0.78 h.

As to `Cc1ccccc1-c1cc(N2CCN(C)CC2)ncc1N(C)C(=O)C(C)(C)c1cc(C(F)(F)F)cc(C(F)(F)F)c1`, the MRT was 32.6 h, the volume of distribution (Vd) was 5.54 L/kg, the clearance is 2.83 mL/min/kg and the half-life was 34.3 h. Also, the fraction unbound was 0.003.

For `CCOc1nc2cccc(C(=O)O)c2n1Cc1ccc(-c2ccccc2-c2nnn[nH]2)cc1`, the MRT was 5.9 h, the distribution volume (Vd) was 0.13 L/kg, the clearance is 0.37 mL/min/kg and the half-life was 9.7 h. The fraction unbound is 0.002.

As for `N#C[C@H]1CC2C[C@H]2N1C(=O)C(N)C12CC3CC(CC(O)(C3)C1)C2` (some centres not stated), the MRT is 4.1 h, the distribution volume (Vd) is 1.8 L/kg, the clearance is 7.1 mL/min/kg and the half-life is 7.5 h. In addition, the fraction unbound is 1.

On to `Cc1cccc(N2CC(CO)OC2=O)c1` (configuration not stated), for which the MRT was 2.3 h, the Vd was 1.5 L/kg, the clearance is 11 mL/min/kg and the half-life is 1.6 h. Besides, the fraction unbound is 0.49.

In the case of `CCCc1nc2c(C)cc(-c3nc4ccccc4n3C)cc2n1Cc1ccc(-c2ccccc2C(=O)O)cc1`, the MRT was 11 h, the Vd was 5.3 L/kg, the clearance was 8.4 mL/min/kg and the half-life was 20 h.

Take `O=C(O)CCCC[C@H]1CCSS1`: the MRT was 0.13 h, the Vd is 0.11 L/kg, the clearance is 13.4 mL/min/kg and the half-life was 0.21 h.

Regarding `CC(c1nc(-c2ccc(C#N)cc2)cs1)[C@@](O)(Cn1cncn1)c1cc(F)ccc1F` (some centres not stated), the MRT is 106 h, the Vd is 5.37 L/kg, the clearance is 0.85 mL/min/kg and the half-life is 86.9 h. In addition, the fraction unbound was 0.01.

With `N[C@@H]1CN(c2c(F)cc3c(=O)c(C(=O)O)cn([C@@H]4C[C@@H]4F)c3c2Cl)CC12CC2`, the MRT was 6.7 h, the Vd is 1.5 L/kg, the clearance was 3.7 mL/min/kg and the half-life is 6.6 h.

In the case of `C=C[C@@H]1C[C@]1(NC(=O)C1C[C@@H](Oc2ncc(OC)c3ccc(Cl)cc23)CN1C(=O)C(NC(=O)OC(C)(C)C)C(C)(C)C)C(=O)NS(=O)(=O)C1CC1` (some centres not stated), the MRT was 3.92 h, the Vd was 2.77 L/kg, the clearance was 11.8 mL/min/kg and the half-life was 20 h. The fraction unbound was 0.012.

Regarding `O=c1[nH]c(O)cn1/N=C/c1ccc(-c2ccc([N+](=O)[O-])cc2)o1`, the MRT was 14 h, the Vd was 0.37 L/kg, the clearance was 0.43 mL/min/kg and the half-life is 10 h.

As for `N=C(N)c1ccc(OCCCCCOc2ccc(C(=N)N)cc2)cc1`, the MRT is 12 h, the Vd is 53 L/kg, the clearance was 74 mL/min/kg and the half-life was 25 h. Further, the fraction unbound was 0.09.

Turning to `CO[C@H]1/C=C/O[C@@]2(C)Oc3c(C)c(O)c4c(O)c(c(/C=N/N5CCN(C)CC5)c(O)c4c3C2=O)NC(=O)C(C)=CC=CC(C)[C@H](O)[C@@H](C)[C@@H](O)[C@@H](C)[C@H](OC(C)=O)[C@@H]1C` (some centres not stated), the MRT is 4.6 h, the Vd was 0.97 L/kg and the clearance is 3.5 mL/min/kg.

Take `Cn1c(CCCC(=O)O)nc2cc(N(CCCl)CCCl)ccc21`: the MRT is 0.81 h, the Vd was 0.22 L/kg, the clearance was 4.49 mL/min/kg and the half-life is 0.41 h. Also, the fraction unbound was 0.05.

As to `CCc1[nH]c(=O)[nH]c1C(=O)c1ccncc1`, the MRT is 1.2 h, the Vd is 0.65 L/kg, the clearance is 9.03 mL/min/kg and the half-life was 1.32 h.

As for `CCCCCNC(=N)NN=Cc1c[nH]c2ccc(OC)cc12`, the MRT was 4.9 h, the Vd is 5.3 L/kg, the clearance is 18 mL/min/kg and the half-life was 11 h.

For `Cc1nc(=O)c2cc(CN(C)c3ccc(C(=O)NC(CCC(=O)O)C(=O)O)s3)ccc2[nH]1` (configuration not stated), the MRT is 123 h, the Vd was 6.57 L/kg, the clearance is 0.9 mL/min/kg and the half-life was 140 h. Further, the fraction unbound is 0.05.

For `COCOCC(CCC1(C(=O)NC2CCC(C(=O)O)CC2)CCCC1)C(=O)O` (configuration not stated), the MRT was 1.81 h, the Vd is 0.25 L/kg, the clearance was 2.3 mL/min/kg and the half-life is 16 h. Also, the fraction unbound was 0.872.

As to `Cc1ccc(-n2ccnc2)cc1C(O)c1c(C)cc(C(=O)O)cc1C` (configuration not stated), the MRT was 2.17 h, the volume of distribution (Vd) is 0.37 L/kg, the clearance was 2.91 mL/min/kg and the half-life was 2.37 h.

For `CCN1CCN(C(=O)NC(C(=O)N[C@]2(OC)C(=O)N3C(C(=O)O)=C(CSc4nnnn4C)CS[C@@H]32)[C@H](C)O)C(=O)C1=O` (some centres not stated), the mean residence time (MRT) is 2.9 h, the Vd was 0.19 L/kg, the clearance was 1.1 mL/min/kg and the half-life is 1.9 h.

As to `CC(=O)Nc1c(I)c(NC(C)=O)c(I)c(C(=O)O)c1I`, the MRT was 2.6 h, the clearance is 1.7 mL/min/kg and the fraction unbound is 1.

For `CN(C)C/C=C(\c1ccc(Br)cc1)c1cccnc1`, the MRT was 8.22 h, the Vd was 6.8 L/kg, the clearance was 13.8 mL/min/kg and the half-life is 6.26 h. The fraction unbound is 0.086.

On to `C[C@H](CCc1ccccc1)NC[C@H](O)c1ccc(O)c(C(N)=O)c1`, for which the MRT is 2.8 h, the clearance is 29 mL/min/kg and the half-life was 3.3 h.

With `CSCCC(N)C(=O)N[C@@]1(C(=O)O)CS(=O)(=O)[C@H]2C(C(=O)O)[C@H]21` (some centres not stated), the MRT is 0.75 h, the Vd is 0.44 L/kg, the clearance was 9.73 mL/min/kg and the half-life was 0.84 h.

Consider `O[C@@H](CNC[C@H](O)[C@H]1CCc2cc(F)ccc2O1)[C@@H]1CCc2cc(F)ccc2O1`, for which the MRT was 13 h, the Vd was 11 L/kg, the clearance was 14 mL/min/kg and the half-life is 10 h. Moreover, the fraction unbound is 0.02.
